Test results published in patent publication US6489362B1, “Carnitine supplemented diet to prevent or alleviate ascites in broiler type poultry” (The Board of Regents for Oklahoma State University, priority 1999, dated 2002).

Legend:
[1] = tested on: Male Cobb-500 broiler chicks; experiment: Carnitine supplemented basal diets fed to broiler chicks in respiratory chambers to 14 days of age; format: in vivo, broiler type chickens; settings: carnitine 200 ppm in basal diet; for Right ventricular weight (RV) / Ascites heart ratio (AHR), ratio of right ventricular mass to heart weight: 14 days of age; for Right ventricular weight (RV): control 0 ppm 0.21 ± 0.005; for Ascites heart ratio (AHR), ratio of right ventricular mass to heart weight: control 0 ppm 11.45 ± 0.24; for Hematocrit HCT: blood at week 2, control 0 ppm 36.11 ± 0.26
Method: (§1) Materials and Methods: Male Cobb-500 broiler chicks (obtained from Cobb Vantress of Siloam Springs, Ark.) were used. The chicks were divided into 24 groups of […] chicks and randomly assigned to 60 open circuit respiratory chambers in three separate rooms. The chambers were housed in 3 thermostatically controlled rooms with 24 hour fluorescent light. Two levels of carnitine (0,200 ppm) were added to the basal diets (Table 1) and examined at two oxygen levels (17 and 20.6%).
(§2) Feed and drinking water were provided for ad-libitum consumption. Chamber temperature was maintained at 30° C. the first 5 days of age and at 27.8° C. thereafter. Chambers were checked twice daily for bird mortality. Body weights of each chick were obtained on day 0, 7 and 14. Feed consumption was determined on a chamber basis at the end of 1 and 2 weeks and feed efficiency calculated. Oxygen consumption and CO2 production was recorded continuously on all chambers. Five birds at the start of the experiment were sacrificed for determination of initial composition. At the end of the experiment (Week 2) blood samples were taken from the wing vain of all birds for hematocrit determination. Heart weight and right ventricular mass of each bird were measured and the carcass saved for determination of lean and fat tissue gain using a Hologic densitometer.
Breathing Air Supply and Analysis: Compressed dried air (7% relative humidity (RH), 20.6% O2) was delivered to chicks in the chamber via polyethylene tubes. It was necessary to provide low RH air to the chick chamber in order to hold the chamber at RH below 75%. The concentration of O2 and CO2 in air exiting each bird's chamber was monitored each day using Ametek oxygen (accuracy±0.02%) and carbon dioxide (accuracy±.03%) analyzers, respectively.
Statistical Analysis: Data were analyzed using the General Linear Model procedure of SAS (SAS, 1985). When a significant F statistic was noted by ANOVA, treatment means were compared using least square analysis variance.

broilers = experiment: Further examples: hematocrit of broilers fed carnitine supplemented diets; format: in vivo, broiler type chickens; settings: for Hematocrit HCT: control 0: 33.40
Method: as §1, with “Two levels of carnitine (0,200 ppm) were added to the basal diets (Table 1) and examined at two oxygen levels (17 and 20.6%).” left out
as §2

growing broilers = settings: cited from earlier work

C[N+](C)(C)CC(O)CC(=O)[O-] (stereo not drawn) [Carnitine, 3-hydroxy-4-N-trimethylaminobutyric acid]
Right ventricular weight (RV) [1]: 0.20 ± 0.006 g | Right ventricular weight (RV) ([1]; listed as carnitine): significantly decreased | Ascites heart ratio (AHR), ratio of right ventricular mass to heart weight [1]: 10.57 ± 0.26% | Ascites heart ratio (AHR), ratio of right ventricular mass to heart weight ([1]; listed as carnitine): significantly decreased | Hematocrit HCT [1]: 35.41 ± 0.24% | Hematocrit HCT ([1]; listed as carnitine): significantly decreased | Body weight gain (Gain) ([1]; broilers to 14 days of age): 265 ± 3.1 g/b | Gain:feed ratio ([1]; broilers to 14 days of age): 0.76 ± 0.0 | Hematocrit HCT (broilers; carnitine level 12.5 (ppm) in diet): 32.11% | Hematocrit HCT (broilers; carnitine level 50 (ppm) in diet): 31.99% | Hematocrit HCT (broilers; carnitine level 100 (ppm) in diet): 30.60% | Hematocrit values, change versus unsupplemented diet (broilers; diets at 12.5, 50 and 100 ppm carnitine): beneficial and significant lowering | Effect on feed intake, body and abdominal fat weight, carcass or liver lipid levels (growing broilers; carnitine in poultry diet, growing broilers (Cartwright 1986)): no beneficial effect | Ethanol metabolism in broilers (growing broilers; dietary carnitine (Smith et al. 1992)): retard ethanol metabolism | Hatchability of eggs (growing broilers; dietary carnitine (U.S. Pat. No. 5,362,753)): increase the hatchability of eggs
